According to patent US8440646B1 (priority 2006, dated 2013):
Values after ≈ are worked out from the molar mass of the structure shown. Where two headings read alike, the source gives them in different places.

Columns and labels:
[1] = tested on: S. aureus RN450; experiment: microbe, parasite or virus in culture; format: cell-based; conditions: Staphylococcus aureus
[2] = tested on: S. aureus MRSA5; experiment: microbe, parasite or virus in culture; format: cell-based; conditions: Staphylococcus aureus
[3] = tested on: S. pneumoniae 157E; experiment: microbe, parasite or virus in culture; format: cell-based; conditions: Streptococcus pneumoniae
[4] = tested on: S. pneumoniae 700905; experiment: microbe, parasite or virus in culture; format: cell-based; conditions: Streptococcus pneumoniae
[5] = tested on: Protein synthesis of S. aureus RN450; experiment: microbe, parasite or virus in culture; format: cell-based; conditions: for IC50 / IC90: Staphylococcus aureus; for IC50: read-out: Protein synthesis IC50; for IC90: read-out: Protein synthesis IC90
[6] = tested on: Peptidoglycan synthesis of S. aureus RN450; experiment: microbe, parasite or virus in culture; format: cell-based; conditions: for IC50 / IC90: Staphylococcus aureus; for IC50: read-out: Peptidoglycan synthesis IC50; for IC90: read-out: Peptidoglycan synthesis IC90
[7] = tested on: E. faecium 494; experiment: microbe, parasite or virus in culture; format: cell-based; conditions: Enterococcus faecium
[8] = tested on: E. faecalis 29212; experiment: microbe, parasite or virus in culture; format: cell-based; conditions: Enterococcus faecalis
[9] = tested on: S. pneumoniae 157E; design: species or system mice; conditions: mouse, in vivo
[10] = tested on: S. pneumoniae 700905; design: species or system mice; conditions: mouse, in vivo
[11] = tested on: S. pneumoniae 157E; experiment: animal or person; format: in vivo, mice; conditions: for responders at 5 mg/kg / responders at 10 mg/kg: Streptococcus pneumoniae, 157E, in Mus musculus, 48 h, read-out: % survival; for efficacy in words: mouse, in vivo
[12] = tested on: S. aureus RN4250; experiment: microbe, parasite or virus in culture; format: cell-based; conditions: Staphylococcus aureus, RN4250

## CN(C)[C@@H]1C(O)=C(C(N)=O)C(=O)[C@@]2(O)C(O)=C3C(=O)c4c(O)ccc(C#Cc5ccc(N)cc5)c4C[C@H]3C[C@@H]12 [AA]
[1]
  MIC: 1 µg/mL (≈ 1.89 µM)
[2]
  MIC: 0.5 µg/mL (≈ 0.944 µM)
[3]
  MIC: 0.5 µg/mL (≈ 0.944 µM)
[4]
  MIC: 1 µg/mL (≈ 1.89 µM)
[5]
  macromolecular synthesis profile in words: profile similar to class I compounds
  IC50: 0.14 µg/mL (≈ 0.264 µM)
  IC90: 1.4 µg/mL (≈ 2.64 µM)
[6]
  effect on peptidoglycan biosynthesis in words: affect peptidoglycan biosynthesis
  IC50: 3.8 µg/mL (≈ 7.18 µM)
  IC90: 23 µg/mL (≈ 43.4 µM)

## CN(C)[C@@H]1C(O)=C(C(N)=O)C(=O)[C@@]2(O)C(O)=C3C(=O)c4c(O)ccc(-c5ccc(CO)cc5)c4C[C@H]3C[C@@H]12 [AB]
[1]
  MIC: 0.06 µg/mL (≈ 0.115 µM)
[2]
  MIC: 1 µg/mL (≈ 1.92 µM)
[3]
  MIC: 0.06 µg/mL (≈ 0.115 µM)
[4]
  MIC: 4 µg/mL (≈ 7.68 µM)
[5]
  IC50: 0.19 µg/mL (≈ 0.365 µM)
  IC90: 1.8 µg/mL (≈ 3.46 µM)
[6]
  IC50: 18.3 µg/mL (≈ 35.2 µM)
  IC90: > 32 µg/mL

## COCCOC(=O)Nc1ccc(-c2ccc(O)c3c2C[C@H]2C[C@H]4[C@H](N(C)C)C(O)=C(C(N)=O)C(=O)[C@@]4(O)C(O)=C2C3=O)cc1 [AD]
[1]
  MIC: 0.06 µg/mL (≈ 0.0987 µM)
[2]
  MIC: 1 µg/mL (≈ 1.65 µM)
[3]
  MIC: 0.13 µg/mL (≈ 0.214 µM)
[4]
  MIC: 0.5 µg/mL (≈ 0.823 µM)

## CN(C)[C@@H]1C(O)=C(C(N)=O)C(=O)[C@@]2(O)C(O)=C3C(=O)c4c(O)ccc(-c5ccc(NC(=O)c6ccno6)cc5)c4C[C@H]3C[C@@H]12 [AE]
[1]
  MIC: 0.06 µg/mL (≈ 0.0999 µM)
[2]
  MIC: 0.5 µg/mL (≈ 0.833 µM)
[3]
  MIC: 0.13 µg/mL (≈ 0.216 µM)
[4]
  MIC: 1 µg/mL (≈ 1.67 µM)
[5]
  IC50: 0.07 µg/mL (≈ 0.117 µM)
  IC90: 0.62 µg/mL (≈ 1.03 µM)
[6]
  IC50: 6 µg/mL (≈ 9.99 µM)
  IC90: > 32 µg/mL

## CCCCN(CCCC)Cc1cc(N(C)C)c2c(c1O)C(=O)C1=C(O)[C@]3(O)C(=O)C(C(N)=O)=C(O)[C@@H](N(C)C)[C@@H]3C[C@@H]1C2 [AH]
[2]
  MIC: 1 µg/mL (≈ 1.67 µM)
[7]
  MIC: 0.25 µg/mL (≈ 0.418 µM)
[4]
  MIC: 0.06 µg/mL (≈ 0.1 µM)
[8]
  MIC: 0.25 µg/mL (≈ 0.418 µM)

## CN(CCCc1cc(N(C)C)c2c(c1O)C(=O)C1=C(O)[C@]3(O)C(=O)C(C(N)=O)=C(O)[C@@H](N(C)C)[C@@H]3C[C@@H]1C2)Cc1ccccc1 [AK]
[1]
  MIC: 1 µg/mL (≈ 1.62 µM)
[2]
  MIC: 2 µg/mL (≈ 3.23 µM)
[3]
  MIC: 0.5 µg/mL (≈ 0.808 µM)
[4]
  MIC: 0.5 µg/mL (≈ 0.808 µM)

## C[C@H]1c2ccc(CN3CCC(C(F)(F)F)CC3)c(O)c2C(=O)C2=C(O)[C@]3(O)C(=O)C(C(N)=O)=C(O)[C@@H](N(C)C)C3[C@@H](O)C21 (some centres unmarked) [AN]
[9]; iv
  PD50: 0.54 mg/kg
[9]; po
  PD50: 2.3 mg/kg
[10]; iv
  PD50: 1.4 mg/kg
[10]; po
  PD50: 8.4 mg/kg

## CO/N=C/c1cc(-c2ccc(O)c3c2C[C@H]2C[C@H]4[C@H](N(C)C)C(O)=C(C(N)=O)C(=O)[C@@]4(O)C(O)=C2C3=O)ccc1OC [A]
[1]
  MIC: 0.25 µg/mL (≈ 0.433 µM)
[2]
  MIC: 1 µg/mL (≈ 1.73 µM)
[7]
  MIC: 1 µg/mL (≈ 1.73 µM)
[4]
  MIC: 0.25 µg/mL (≈ 0.433 µM)
[8]
  MIC: 1 µg/mL (≈ 1.73 µM)
[5]
  IC50: 1.9 µg/mL (≈ 3.29 µM)
  IC90: 5 µg/mL (≈ 8.66 µM)
[6]
  effect on peptidoglycan biosynthesis in words: affect peptidoglycan biosynthesis
  IC50: 2.1 µg/mL (≈ 3.64 µM)
  IC90: 3.8 µg/mL (≈ 6.58 µM)

## CN(C)c1cc(CNC2CCCCC2)c(O)c2c1C[C@H]1C[C@H]3[C@H](N(C)C)C(O)=C(C(N)=O)C(=O)[C@@]3(O)C(O)=C1C2=O [B]
[2]
  MIC: 1 µg/mL (≈ 1.76 µM)
[7]
  MIC: 1 µg/mL (≈ 1.76 µM)
[4]
  MIC: 0.5 µg/mL (≈ 0.879 µM)
[8]
  MIC: 1 µg/mL (≈ 1.76 µM)
[11]; po
  responders at 5 mg/kg: 40%
[11]; sc
  responders at 5 mg/kg: 100%
[11]
  efficacy in words: efficacious

## CC(CF)N(C)Cc1cc(N(C)C)c2c(c1O)C(=O)C1=C(O)[C@]3(O)C(=O)C(C(N)=O)=C(O)[C@@H](N(C)C)[C@@H]3C[C@@H]1C2 (some centres unmarked) [Compound C]
[2]
  MIC: 1 µg/mL (≈ 1.78 µM)
[7]
  MIC: 0.25 µg/mL (≈ 0.446 µM)
[4]
  MIC: 0.25 µg/mL (≈ 0.446 µM)
[8]
  MIC: 0.5 µg/mL (≈ 0.892 µM)
[11]; po
  responders at 10 mg/kg: 60%
[11]; sc
  responders at 5 mg/kg: 100%
[11]
  efficacy in words: efficacious

## CN(Cc1ccccc1)Cc1cc(N(C)C)c2c(c1O)C(=O)C1=C(O)[C@]3(O)C(=O)C(C(N)=O)=C(O)[C@@H](N(C)C)[C@@H]3C[C@@H]1C2 [Compound I]
[2]
  MIC: 1 µg/mL (≈ 1.69 µM)
[7]
  MIC: 1 µg/mL (≈ 1.69 µM)
[4]
  MIC: 0.5 µg/mL (≈ 0.846 µM)
[8]
  MIC: 1 µg/mL (≈ 1.69 µM)
[9]; iv
  PD50: 1 mg/kg
[9]; po
  PD50: 13.4 mg/kg
  oral activity in words: exhibited oral activity
[10]; iv
  PD50: 2.2 mg/kg
[10]; po
  PD50: 31.6 mg/kg

## COc1ccc(-c2ccc(O)c3c2C[C@H]2C[C@H]4[C@H](N(C)C)C(O)=C(C(N)=O)C(=O)[C@@]4(O)C(O)=C2C3=O)cc1CN(C)C(C)C [Compound M]
[1]
  MIC: 0.06 µg/mL (≈ 0.0991 µM)
[12]
  MIC: 0.06 µg/mL (≈ 0.0991 µM)

## CC1CN(C2CCN(Cc3cc(N(C)C)c4c(c3O)C(=O)C3=C(O)[C@]5(O)C(=O)C(C(N)=O)=C(O)[C@@H](N(C)C)[C@@H]5C[C@@H]3C4)CC2)CC(C)O1 (some centres unmarked) [Compound R]
[2]
  MIC: 1 µg/mL (≈ 1.5 µM)
[7]
  MIC: 1 µg/mL (≈ 1.5 µM)
[4]
  MIC: 0.13 µg/mL (≈ 0.195 µM)
[8]
  MIC: 2 µg/mL (≈ 2.99 µM)

## CN(C)Cc1ccc(-c2ccc(O)c3c2C[C@H]2C[C@H]4[C@H](N(C)C)C(O)=C(C(N)=O)C(=O)[C@@]4(O)C(O)=C2C3=O)cc1 [Compound V]
[1]
  MIC: 0.06 µg/mL (≈ 0.11 µM)
[12]
  MIC: 0.06 µg/mL (≈ 0.11 µM)

## COC(=O)c1ccc(CNCc2cc(N(C)C)c3c(c2O)C(=O)C2=C(O)[C@]4(O)C(=O)C(C(N)=O)=C(O)[C@H](N(C)C)[C@@H]4C[C@@H]2C3)cc1 [D]
[2]
  MIC: 1 µg/mL (≈ 1.58 µM)
[7]
  MIC: 1 µg/mL (≈ 1.58 µM)
[4]
  MIC: 0.25 µg/mL (≈ 0.394 µM)
[8]
  MIC: 0.25 µg/mL (≈ 0.394 µM)
[11]; po
  responders at 10 mg/kg: 0%
[11]; sc
  responders at 5 mg/kg: 0%
